Test results from US20260132129A1 (Genesis Therapeutics, Inc., priority 2022, published 2026).

Biological target: T1, PI3Kα H1047R (T47D cells) (Homo sapiens, UniProt P42336, H1047R)
T1 construct: endogenous in cells; host or cells: T47D cells
Experiment: PI3Kα cellular assay: pAKT HTRF in T47D cells after EGF stimulation
Type: cell-based
Settings: for IC50: T47D cells (PI3Kα H1047R), pAKT S473 HTRF
Summary of the method: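 T47D cells (PIK3CA H1047R) serum-starved 16 h, then treated 1 h at 37 °C with compound (10,000 nM top, 3-fold steps to 0.5 nM). After 10 min stimulation with 20 ng/mL EGF, cells were lysed and pAKT measured by HTRF.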

[1] = selectivity T47D (H1047R) over SKBR3 (WT), pAKT HTRF
[2] = 1 hr compound, 20 ng/ml EGF 10 min
[3] = selectivity of T47D (H1047R) over SKBR3 (WT) pAKT IC50

T1 sequence (P42336 whole entry H1047R): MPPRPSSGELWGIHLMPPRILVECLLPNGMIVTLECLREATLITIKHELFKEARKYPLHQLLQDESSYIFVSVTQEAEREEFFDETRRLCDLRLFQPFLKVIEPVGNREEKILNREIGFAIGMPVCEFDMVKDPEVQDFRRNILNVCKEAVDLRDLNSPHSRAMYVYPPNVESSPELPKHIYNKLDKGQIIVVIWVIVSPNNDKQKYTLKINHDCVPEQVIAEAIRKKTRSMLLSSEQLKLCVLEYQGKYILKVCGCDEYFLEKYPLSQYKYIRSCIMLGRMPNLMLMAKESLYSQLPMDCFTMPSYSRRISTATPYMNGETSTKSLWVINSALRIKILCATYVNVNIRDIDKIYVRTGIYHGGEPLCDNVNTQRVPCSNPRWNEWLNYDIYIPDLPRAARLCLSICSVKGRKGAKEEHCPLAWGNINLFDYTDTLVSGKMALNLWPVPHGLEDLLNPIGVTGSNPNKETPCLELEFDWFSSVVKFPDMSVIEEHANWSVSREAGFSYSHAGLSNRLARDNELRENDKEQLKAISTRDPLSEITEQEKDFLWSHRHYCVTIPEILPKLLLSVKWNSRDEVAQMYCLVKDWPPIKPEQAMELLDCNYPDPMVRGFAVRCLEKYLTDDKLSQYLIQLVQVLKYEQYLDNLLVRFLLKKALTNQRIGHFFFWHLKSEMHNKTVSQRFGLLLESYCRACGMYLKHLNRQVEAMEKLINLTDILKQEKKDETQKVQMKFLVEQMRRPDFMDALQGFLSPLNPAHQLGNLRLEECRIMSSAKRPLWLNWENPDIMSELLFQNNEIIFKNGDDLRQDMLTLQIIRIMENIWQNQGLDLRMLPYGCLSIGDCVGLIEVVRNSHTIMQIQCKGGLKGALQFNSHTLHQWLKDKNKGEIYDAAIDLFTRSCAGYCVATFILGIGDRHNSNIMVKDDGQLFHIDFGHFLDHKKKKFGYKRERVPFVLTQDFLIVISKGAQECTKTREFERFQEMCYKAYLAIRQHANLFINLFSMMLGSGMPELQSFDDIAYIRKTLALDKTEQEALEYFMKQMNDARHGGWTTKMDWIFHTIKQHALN
T1 sequence (P27986 whole entry partner): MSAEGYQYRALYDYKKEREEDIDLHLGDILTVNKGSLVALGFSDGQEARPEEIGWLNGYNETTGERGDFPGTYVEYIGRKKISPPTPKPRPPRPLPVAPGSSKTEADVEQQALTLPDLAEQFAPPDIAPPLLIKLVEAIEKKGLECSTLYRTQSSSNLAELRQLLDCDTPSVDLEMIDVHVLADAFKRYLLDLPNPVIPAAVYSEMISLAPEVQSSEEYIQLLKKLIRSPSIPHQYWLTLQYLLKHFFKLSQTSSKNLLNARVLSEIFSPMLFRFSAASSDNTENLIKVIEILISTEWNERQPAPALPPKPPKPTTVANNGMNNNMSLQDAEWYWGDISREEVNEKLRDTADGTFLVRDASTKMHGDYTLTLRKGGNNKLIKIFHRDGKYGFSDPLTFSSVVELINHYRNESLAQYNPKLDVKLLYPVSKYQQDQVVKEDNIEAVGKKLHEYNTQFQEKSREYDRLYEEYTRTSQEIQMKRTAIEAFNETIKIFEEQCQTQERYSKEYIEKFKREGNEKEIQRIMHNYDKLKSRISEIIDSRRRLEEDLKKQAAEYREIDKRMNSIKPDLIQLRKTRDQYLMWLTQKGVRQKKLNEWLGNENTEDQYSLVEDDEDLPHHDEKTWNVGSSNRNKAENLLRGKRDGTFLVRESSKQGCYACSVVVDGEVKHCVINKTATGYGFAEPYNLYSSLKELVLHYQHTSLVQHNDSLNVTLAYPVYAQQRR

| SMILES | T47D pAKT S473 HTRF IC50 (H1047R): T47D (H1047R) selectivity over SKBR3 (WT) [1] | IC50 [2] [nM] | IC50 (EGF stimulation) [nM] | T47D pAKT S473 HTRF IC50 (H1047R): T47D (H1047R) selectivity over SKBR3 (WT) [3] |
| --- | --- | --- | --- | --- |
| CCc1ccn2c(=O)c(C)c(-c3cccc(F)c3)nc2c1[C@@H](C)Nc1ccccc1C(=O)O [Compound 1325] | C (C denotes ≤5-fold) |  |  |  |
| Cc1cc([C@H](C)Nc2ccccc2C(=O)O)c2nc(C3C=NC(C4CC4)=CC3)cc(=O)n2c1 (some centres unmarked) [Compound 1112] | B (B denotes 20-fold≥value>5-fold) |  |  |  |
| CONC(=O)c1ccc(-c2cc(=O)n3cc(C)cc([C@@H](C)Nc4ccccc4C(=O)O)c3n2)cc1 [Compound 485] | C (C denotes ≤5-fold) | > 2000 |  |  |
| Cc1cc([C@@H](C)Nc2ccccc2C(=O)O)c2nc(N3CCN(C)CC3)cc(=O)n2c1 [Compound 394] | C (C denotes ≤5-fold) | > 2000 |  |  |
| Cc1cc([C@H](C)Nc2cnncc2C(=O)O)c2nc(N3CCOCC3)cc(=O)n2c1 [Compound 376] | C (C denotes ≤5-fold) | > 2000 |  |  |
| Cc1cc(C(C)Nc2ccccc2-c2ccnnc2)c2nc(N3Cc4ccccc4C3)c(C3CC3)c(=O)n2c1 (centres unmarked) [Compound 832] |  |  | 500 to 2000 | B (B denotes 20-fold≥value>5-fold) |
| Cc1cc(C(C)Nc2ccccc2-c2cc(O)no2)c2nc(-c3cccc(F)c3)c(C)c(=O)n2c1 (centres unmarked) [Compound 1367, 2-(3-fluorophenyl)-9-(1-((2-(3-hydroxyisoxazol-5-yl)phenyl)amino)ethyl)-3,7-dimethyl-4H-pyrido[1,2-a]pyrimidin-4-one] | A (A denotes >20-fold) |  | 100 to 500 |  |
| Cc1cc([C@@H](C)Nc2ccccc2C(=O)O)c2nc(C3CCN(C(=O)C4(N)CC4)CC3)cc(=O)n2c1 [Compound 525] | C (C denotes ≤5-fold) | > 2000 |  |  |
| Cc1cc([C@@H](C)Nc2ccccc2C(N)=O)c2nc(-c3ccnc(C4CC4)c3)c(C)c(=O)n2c1 [Compound 1089] | C (C denotes ≤5-fold) |  | > 2000 |  |
| Cc1cc([C@@H](C)Nc2ccccc2C(=O)O)c2nc([C@H]3CCCC(CC(F)F)C3)c(C)c(=O)n2c1 (some centres unmarked) [Compound 1329] | A (A denotes >20-fold) |  |  |  |
| Cc1cc([C@H](C)Nc2ccccc2)c2nc(-c3cc(C)c4oc(=O)[nH]c4c3)cc(=O)n2c1 [Compound 252] | C (C denotes ≤5-fold) | > 2000 |  |  |
| Cc1cc([C@H](C)Nc2cccc3c2OCC(=O)N3)c2nc(N3CCOCC3)cc(=O)n2c1 [Compound 686] |  |  | > 2000 | C (C denotes ≤5-fold) |
| Cc1cc([C@@H](C)Nc2ccccc2C(=O)O)c2nc(-c3ccc4c(c3)c(C#N)nn4C3CC3)c(C)c(=O)n2c1 [Compound 1048] |  |  | 100 to 500 | A (A denotes >20-fold) |
| Cc1cc(C(C)Nc2cccc3c2=NCN=3)c2nc(N3CCOCC3)cc(=O)n2c1 (centres unmarked) [Compound 782] |  |  | > 2000 | C (C denotes ≤5-fold) |
| Cc1cc([C@@H](C)Nc2ccccc2S(N)(=O)=O)c2nc(-c3ccc4c(C)nn(C5CC5)c4c3)c(C)c(=O)n2c1 [Compound 1027] |  |  | 100 to 500 | A (A denotes >20-fold) |
| Cc1cc(C(C)Nc2ccccc2C(N)=O)c2nc(-c3ccnc(C4CC4)c3)c(C)c(=O)n2c1 (centres unmarked) [Compound 1090] | A (A denotes >20-fold) |  | < 100 |  |
| Cc1cc([C@@H](C)Nc2ccccc2C(=O)O)c2nc(-c3cccc(C#N)c3)c(C)c(=O)n2c1 (single isomer, unassigned) [Compound 967] |  |  | < 100 | A (A denotes >20-fold) |
| Cc1cc(C(C)Nc2ccccc2-c2nnn[nH]2)c2nc(N3Cc4ccccc4C3)cc(=O)n2c1 (centres unmarked) [Compound 877] |  |  | 100 to 500 | A (A denotes >20-fold) |
| Cc1cc([C@@H](C)Nc2ccccc2C(=O)O)c2nc(-c3cnc(C)c(Cl)c3)c(C)c(=O)n2c1 [Compound 1052] |  |  | 100 to 500 | A (A denotes >20-fold) |
| Cc1cc(C(C)Nc2ccccc2C(=O)O)c2nc(-n3cnc4ccc(O)cc43)cc(=O)n2c1 (centres unmarked) [Compound 799] |  |  | > 2000 | C (C denotes ≤5-fold) |
| CC1=CC2C(=O)C=C([C@H]3CC[C@H](CC4CC[C@H](O)C4)CC3)N=C2C([C@H](C)Nc2ccccc2C(=O)O)=C1 (some centres unmarked) [Compound 778] |  |  | > 2000 | C (C denotes ≤5-fold) |
| Cc1cc([C@@H](C)Nc2ccccc2S(N)(=O)=O)c2nc(-c3cnc4c(c3)c(C)nn4C3CC3)c(C)c(=O)n2c1 [Compound 991] |  |  | 100 to 500 | A (A denotes >20-fold) |

| SMILES | T47D pAKT S473 HTRF IC50 (H1047R): T47D (H1047R) selectivity over SKBR3 (WT) [1] | IC50 [2] [nM] | IC50 (EGF stimulation) [nM] | T47D pAKT S473 HTRF IC50 (H1047R): T47D (H1047R) selectivity over SKBR3 (WT) [3] |
| --- | --- | --- | --- | --- |
| COCCNc1cc(=O)n2cc(C)cc(C(C)Nc3ccccc3C(=O)O)c2n1 (centres unmarked) [Compound 313] | C (C denotes ≤5-fold) | > 2000 |  |  |
| Cc1cc(C(C)Nc2ccccc2C(=O)O)c2nc(-c3ccc4c(c3)NC(CO)N4)cc(=O)n2c1 (centres unmarked) [Compound 466] | C (C denotes ≤5-fold) | > 2000 |  |  |
| Cc1cc(C(C)Nc2ccccc2C(=O)O)c2nc(N3C[C@H]4C[C@@H](C5CCN(S(C)(=O)=O)CC5)C[C@H]4C3)cc(=O)n2c1 (some centres unmarked) [Compound 843] |  |  |  | B (B denotes 20-fold≥value>5-fold) |
| CONC(=O)c1ccc(-c2cc(=O)n3cc(C)cc([C@H](C)Nc4ccccc4C(=O)O)c3n2)cc1 [Compound 486] | A (A denotes >20-fold) | 100 to 500 |  |  |
| Cc1cc([C@H](C)Nc2ccccc2S(N)(=O)=O)c2nc(N3Cc4ccccc4C3)cc(=O)n2c1 (single isomer, unassigned) [Compound 606] | C (C denotes ≤5-fold) | > 2000 |  |  |
| Cc1cc(C(C)Nc2ccccc2C(N)=O)c2nc(-c3ccncc3)cc(=O)n2c1 (centres unmarked) [Compound 438] | C (C denotes ≤5-fold) | > 2000 |  |  |
| Cc1cc([C@H](C)Nc2ccccc2S(C)(=O)=O)c2nc(N3CCOCC3)cc(=O)n2c1 [Compound 160] | C (C denotes ≤5-fold) | > 2000 |  |  |
| Cc1cc([C@H](C)Nc2ccccc2C(=O)O)c2nc(-c3cnc4c(c3)c(C)cn4C)c(C)c(=O)n2c1 [Compound 1053] |  |  |  | C (C denotes ≤5-fold) |
| Cc1cc([C@H](C)Nc2ccccc2C(=O)O)c2nc(-c3ccc4c(c3)c(C3CC3)nn4C)cc(=O)n2c1 [Compound 749] |  |  | > 2000 | C (C denotes ≤5-fold) |
| Cc1cc(C(C)Nc2cccc3c2OCC(=O)N3)c2nc(N3CCOCC3)cc(=O)n2c1 (centres unmarked) [Compound 684] |  |  | > 2000 | C (C denotes ≤5-fold) |
| Cc1cc([C@@H](C)Nc2ccccc2C(=O)O)c2nc(-c3ccc4c(c3)COC4)cc(=O)n2c1 [Compound 851] |  |  | < 100 | A (A denotes >20-fold) |
| Cc1cc(C(C)Nc2ccccc2C(=O)O)c2nc(-c3ccc4c(c3)CC(F)(F)C4)c(C)c(=O)n2c1 (centres unmarked) [Compound 833] |  |  | 100 to 500 | A (A denotes >20-fold) |
| Cc1cc([C@H](C)Nc2ccccc2C(=O)O)c2nc(-c3ccc(C4CCC(C)CC4)cc3)cc(=O)n2c1 (some centres unmarked) [Compound 1341] | B (B denotes 20-fold≥value>5-fold) |  |  |  |
| Cc1cc([C@H](C)Nc2ccccc2C(=O)O)c2nc(-c3ccc4c(C)nn(C5CC5)c4c3)c(C)c(=O)n2c1 [Compound 1126] | C (C denotes ≤5-fold) |  | > 2000 |  |
| CCc1cc(C(=O)NOC)ccc1-c1cc(=O)n2cc(C)cc([C@@H](C)Nc3ccccc3C(=O)O)c2n1 [Compound 503] | C (C denotes ≤5-fold) | > 2000 |  |  |
| Cc1cc(C(C)Nc2ccccc2C(=O)O)c2nc(-c3c(C)ccc4c3cnn4C)cc(=O)n2c1 (centres unmarked) [Compound 817] |  |  | > 2000 | C (C denotes ≤5-fold) |
| Cc1cc([C@@H](C)Nc2ccccc2C(=O)O)c2nc(-c3ccc4c(c3)c(C)nn4C3CC3)c(C)c(=O)n2c1 (single isomer, unassigned) [Compound 892] |  |  | < 100 | A (A denotes >20-fold) |
| Cc1cc([C@@H](C)Nc2ccccc2C(=O)O)c2nc(-c3cccc(C(F)F)c3)c(C)c(=O)n2c1 [Compound 1077] | B (B denotes 20-fold≥value>5-fold) |  | 500 to 2000 |  |
| Cc1cc([C@H](C)Nc2ccccc2C(N)=O)c2nc(-c3ccc(C4CC4)nc3)c(C)c(=O)n2c1 [Compound 1154] | C (C denotes ≤5-fold) |  | > 2000 |  |
| Cc1cc([C@@H](C)Nc2ccccc2C(=O)O)c2nc(N3CC[Si](C)(C)CC3)cc(=O)n2c1 (single isomer, unassigned) [Compound 431] | A (A denotes >20-fold) | < 100 |  |  |
| Cc1cc([C@@H](C)Nc2ccccc2C(=O)O)c2nc([C@@H]3CCCOC3)c(C)c(=O)n2c1 [Compound 1280] | A (A denotes >20-fold) |  | < 100 |  |
